Measurements as given in patent publication US7767240B2, “Microbiological control in poultry processing” (priority 2001, dated 2010).

What was measured:
Experiment in all cases: Bacteria count per bird over 20-day storage (Example 4)
Type in all cases: cell-based
Settings in all cases: pH 8
[1] = test system: Pseudomonas aeruginosa ATCC 15442
Protocol: (§1) A study was conducted to determine the effect of Clorox® bleach, and 1,3-dibromo-5,5-dimethylhydantoin (DBDMH) on carcass bacteria residual after 1.5 hour in a chill tank solution and spoilage 20-day shelf life longevity (caused by bacteria contamination). Tests were conducted at pH 8 (adjusted by trisodium phosphate). Skin pigmentation (Minolta Color Meter L value or Lightness, a value or redness and b value or yellowness) were determined before and post-processing.
(§2) In general the study involved normal processing of 56-day-old birds, immersing carcasses first in a warm bath containing 10^4 per mL Escherichia coli, 10^4 per mL Salmonella enteritidis, 10^4 per mL Pseudomonas aeruginosa, 10^4 per mL Campylobacter jejuni, and 10^4 per mL spoilage bacteria each from […] strains (Listeria monocytogenes and Shigella sonnei). Carcass were then immersed in a chill tank “soup”, containing normal organic fluids (blood, fat, skin, and meat particles) and containing various disinfectants (termed test materials).
(§3) A DBDMH stock solution and test solutions, a bacteria stock solution, and a “chicken soup” were prepared as in Example 3. In addition, the bacterial broth treatments, the whole bird wash sampling procedure, and the methodologies used for quantitative or qualitative determinations for bacterial organisms were conducted as in Example 3.
(§4) In greater detail the trial events and experimental design used in this group of tests were as follows: • a) Test microorganisms used were: • Escherichia coli ATCC 11229 • Pseudomonas aeruginosa ATCC 15442 • Salmonella enteritidis ATCC 13076 • Shigella sonnei ATCC 9290 • Listeria monocytogenes ATCC 7644 • Campylobacter jejuni ATCC 29428 • b) Test Procedure: All test strains were grown individually at 35° C. for 24 hours in the media specified in Table 12. Cells were harvested by centrifugation at 10,000×g for 10 minutes and washed twice with Butterfield's Phosphate Buffer (BPB of pH 7.2). Cells were resuspended in BPB to obtain a cell suspension of approximately 1.0×10^8 CFU/mL for each microorganism. The target inoculum levels were approximately 10^6 CFU/mL in the final test solutions. In the cases of S. enteritidis and P. aeruginosa the species were washed by pouring into prepared sterile centrifuge tubes with cheesecloth filters. The culture was then pelleted and washed using above techniques and repeated 3 times. • c) The birds (56 days old) were processed under normal commercial conditions. • d) The bacteria were added to a large batch of the “chicken soup”, and then aliquots of the resultant mixture were distributed equally among the chill waters used for each test. Then the particular disinfectant composition under test was added to one of the chill waters. […]

[2] = test system: Salmonella enteritidis ATCC 13076
Protocol: as §1, §2, §3, §4

[3] = test system: Escherichia coli ATCC 11229
Protocol: as §1, §2, §3, §4

[4] = test system: Campylobacter jejuni ATCC 29428
Protocol: as §1, §2, §3, §4

[5] = test system: Listeria monocytogenes ATCC 7644
Protocol: as §1, §2, §3, §4

SMILES: CC1(C)C(=O)N(Br)C(=O)N1Br [DBDMH, 1,3-dibromo-5,5-dimethylhydantoin]
- average bacteria count per bird, P. aeruginosa ([1]; Day 0, 10 ppm): 743 per bird
- average bacteria count per bird, P. aeruginosa ([1]; Day 0, 20 ppm): 6 per bird
- average bacteria count per bird, P. aeruginosa ([1]; Day 2, 10 ppm): 820 per bird
- average bacteria count per bird, P. aeruginosa ([1]; Day 2, 20 ppm): 9 per bird
- average bacteria count per bird, P. aeruginosa ([1]; Day 4, 10 ppm): 931 per bird
- average bacteria count per bird, P. aeruginosa ([1]; Day 4, 20 ppm): 13 per bird
- average bacteria count per bird, P. aeruginosa ([1]; Day 6, 10 ppm): 1013 per bird
- average bacteria count per bird, P. aeruginosa ([1]; Day 6, 20 ppm): 25 per bird
- average bacteria count per bird, P. aeruginosa ([1]; Day 8, 10 ppm): 1268 per bird
- average bacteria count per bird, P. aeruginosa ([1]; Day 8, 20 ppm): 48 per bird
- average bacteria count per bird, P. aeruginosa ([1]; Day 10, 10 ppm): 1485 per bird
- average bacteria count per bird, P. aeruginosa ([1]; Day 10, 20 ppm): 91 per bird
- average bacteria count per bird, P. aeruginosa ([1]; Day 12, 10 ppm): 1730 per bird
- average bacteria count per bird, P. aeruginosa ([1]; Day 12, 20 ppm): 186 per bird
- average bacteria count per bird, P. aeruginosa ([1]; Day 14, 10 ppm): 2055 per bird
- average bacteria count per bird, P. aeruginosa ([1]; Day 14, 20 ppm): 363 per bird
- average bacteria count per bird, P. aeruginosa ([1]; Day 16, 10 ppm): 2560 per bird
- average bacteria count per bird, P. aeruginosa ([1]; Day 16, 20 ppm): 700 per bird
- average bacteria count per bird, P. aeruginosa ([1]; Day 18, 10 ppm): 3087 per bird
- average bacteria count per bird, P. aeruginosa ([1]; Day 18, 20 ppm): 826 per bird
- average bacteria count per bird, P. aeruginosa ([1]; Day 20, 10 ppm): 3853 per bird
- average bacteria count per bird, P. aeruginosa ([1]; Day 20, 20 ppm): 908 per bird
- average bacteria count per bird, S. enteritidis ([2]; Day 0, 10 ppm): 292 per bird
- average bacteria count per bird, S. enteritidis ([2]; Day 0, 20 ppm): 12 per bird
- average bacteria count per bird, S. enteritidis ([2]; Day 2, 10 ppm): 344 per bird
- average bacteria count per bird, S. enteritidis ([2]; Day 2, 20 ppm): 18 per bird
- average bacteria count per bird, S. enteritidis ([2]; Day 4, 10 ppm): 394 per bird
- average bacteria count per bird, S. enteritidis ([2]; Day 4, 20 ppm): 27 per bird
- average bacteria count per bird, S. enteritidis ([2]; Day 6, 10 ppm): 433 per bird
- average bacteria count per bird, S. enteritidis ([2]; Day 6, 20 ppm): 55 per bird
- average bacteria count per bird, S. enteritidis ([2]; Day 8, 10 ppm): 507 per bird
- average bacteria count per bird, S. enteritidis ([2]; Day 8, 20 ppm): 104 per bird
- average bacteria count per bird, S. enteritidis ([2]; Day 10, 10 ppm): 616 per bird
- average bacteria count per bird, S. enteritidis ([2]; Day 10, 20 ppm): 212 per bird
- average bacteria count per bird, S. enteritidis ([2]; Day 12, 10 ppm): 740 per bird
- average bacteria count per bird, S. enteritidis ([2]; Day 12, 20 ppm): 413 per bird
- average bacteria count per bird, S. enteritidis ([2]; Day 14, 10 ppm): 919 per bird
- average bacteria count per bird, S. enteritidis ([2]; Day 14, 20 ppm): 832 per bird
- average bacteria count per bird, S. enteritidis ([2]; Day 16, 10 ppm): 1081 per bird
- average bacteria count per bird, S. enteritidis ([2]; Day 16, 20 ppm): 1711 per bird
- average bacteria count per bird, S. enteritidis ([2]; Day 18, 10 ppm): 1286 per bird
- average bacteria count per bird, S. enteritidis ([2]; Day 18, 20 ppm): 2074 per bird
- average bacteria count per bird, S. enteritidis ([2]; Day 20, 10 ppm): 1513 per bird
- average bacteria count per bird, S. enteritidis ([2]; Day 20, 20 ppm): 2258 per bird
- average bacteria count per bird, E. coli ([3]; Day 0, 10 ppm): 861 per bird
- average bacteria count per bird, E. coli ([3]; Day 0, 20 ppm): 22 per bird
- average bacteria count per bird, E. coli ([3]; Day 2, 10 ppm): 966 per bird
- average bacteria count per bird, E. coli ([3]; Day 2, 20 ppm): 31 per bird
- average bacteria count per bird, E. coli ([3]; Day 4, 10 ppm): 1050 per bird
- average bacteria count per bird, E. coli ([3]; Day 4, 20 ppm): 49 per bird
- average bacteria count per bird, E. coli ([3]; Day 6, 10 ppm): 1124 per bird
- average bacteria count per bird, E. coli ([3]; Day 6, 20 ppm): 100 per bird
- average bacteria count per bird, E. coli ([3]; Day 8, 10 ppm): 1364 per bird
- average bacteria count per bird, E. coli ([3]; Day 8, 20 ppm): 204 per bird
- average bacteria count per bird, E. coli ([3]; Day 10, 10 ppm): 1621 per bird
- average bacteria count per bird, E. coli ([3]; Day 10, 20 ppm): 401 per bird
- average bacteria count per bird, E. coli ([3]; Day 12, 10 ppm): 2063 per bird
- average bacteria count per bird, E. coli ([3]; Day 12, 20 ppm): 775 per bird
- average bacteria count per bird, E. coli ([3]; Day 14, 10 ppm): 2581 per bird
- average bacteria count per bird, E. coli ([3]; Day 14, 20 ppm): 1453 per bird
- average bacteria count per bird, E. coli ([3]; Day 16, 10 ppm): 3005 per bird
- average bacteria count per bird, E. coli ([3]; Day 16, 20 ppm): 2933 per bird
- average bacteria count per bird, E. coli ([3]; Day 18, 10 ppm): 3617 per bird
- average bacteria count per bird, E. coli ([3]; Day 18, 20 ppm): 3645 per bird
- average bacteria count per bird, E. coli ([3]; Day 20, 10 ppm): 4460 per bird
- average bacteria count per bird, E. coli ([3]; Day 20, 20 ppm): 4036 per bird
- average bacteria count per bird, C. jejuni ([4]; Day 0, 10 ppm): 519 per bird
- average bacteria count per bird, C. jejuni ([4]; Day 0, 20 ppm): 17 per bird
- average bacteria count per bird, C. jejuni ([4]; Day 2, 10 ppm): 573 per bird
- average bacteria count per bird, C. jejuni ([4]; Day 2, 20 ppm): 25 per bird
- average bacteria count per bird, C. jejuni ([4]; Day 4, 10 ppm): 627 per bird
- average bacteria count per bird, C. jejuni ([4]; Day 4, 20 ppm): 39 per bird
- average bacteria count per bird, C. jejuni ([4]; Day 6, 10 ppm): 671 per bird
- average bacteria count per bird, C. jejuni ([4]; Day 6, 20 ppm): 78 per bird
- average bacteria count per bird, C. jejuni ([4]; Day 8, 10 ppm): 834 per bird
- average bacteria count per bird, C. jejuni ([4]; Day 8, 20 ppm): 157 per bird
- average bacteria count per bird, C. jejuni ([4]; Day 10, 10 ppm): 1043 per bird
- average bacteria count per bird, C. jejuni ([4]; Day 10, 20 ppm): 294 per bird
- average bacteria count per bird, C. jejuni ([4]; Day 12, 10 ppm): 1309 per bird
- average bacteria count per bird, C. jejuni ([4]; Day 12, 20 ppm): 594 per bird
- average bacteria count per bird, C. jejuni ([4]; Day 14, 10 ppm): 1551 per bird
- average bacteria count per bird, C. jejuni ([4]; Day 14, 20 ppm): 1191 per bird
- average bacteria count per bird, C. jejuni ([4]; Day 16, 10 ppm): 1880 per bird
- average bacteria count per bird, C. jejuni ([4]; Day 16, 20 ppm): 2259 per bird
- average bacteria count per bird, C. jejuni ([4]; Day 18, 10 ppm): 2359 per bird
- average bacteria count per bird, C. jejuni ([4]; Day 18, 20 ppm): 2835 per bird
- average bacteria count per bird, C. jejuni ([4]; Day 20, 10 ppm): 2789 per bird
- average bacteria count per bird, C. jejuni ([4]; Day 20, 20 ppm): 3059 per bird
- average bacteria count per bird, L. monocytogenes ([5]; Day 0, 10 ppm): 528 per bird
- average bacteria count per bird, L. monocytogenes ([5]; Day 0, 20 ppm): 13 per bird
- average bacteria count per bird, L. monocytogenes ([5]; Day 2, 10 ppm): 601 per bird
- average bacteria count per bird, L. monocytogenes ([5]; Day 2, 20 ppm): 19 per bird
- average bacteria count per bird, L. monocytogenes ([5]; Day 4, 10 ppm): 670 per bird
- average bacteria count per bird, L. monocytogenes ([5]; Day 4, 20 ppm): 28 per bird
- average bacteria count per bird, L. monocytogenes ([5]; Day 6, 10 ppm): 741 per bird
- average bacteria count per bird, L. monocytogenes ([5]; Day 6, 20 ppm): 55 per bird
- average bacteria count per bird, L. monocytogenes ([5]; Day 8, 10 ppm): 880 per bird
- average bacteria count per bird, L. monocytogenes ([5]; Day 8, 20 ppm): 107 per bird
- average bacteria count per bird, L. monocytogenes ([5]; Day 10, 10 ppm): 1096 per bird
- average bacteria count per bird, L. monocytogenes ([5]; Day 10, 20 ppm): 218 per bird
- average bacteria count per bird, L. monocytogenes ([5]; Day 12, 10 ppm): 1335 per bird
- average bacteria count per bird, L. monocytogenes ([5]; Day 12, 20 ppm): 442 per bird
- average bacteria count per bird, L. monocytogenes ([5]; Day 14, 10 ppm): 1564 per bird
- average bacteria count per bird, L. monocytogenes ([5]; Day 14, 20 ppm): 843 per bird
- average bacteria count per bird, L. monocytogenes ([5]; Day 16, 10 ppm): 1901 per bird
- average bacteria count per bird, L. monocytogenes ([5]; Day 16, 20 ppm): 1646 per bird
- average bacteria count per bird, L. monocytogenes ([5]; Day 18, 10 ppm): 2221 per bird
- average bacteria count per bird, L. monocytogenes ([5]; Day 18, 20 ppm): 1985 per bird
- average bacteria count per bird, L. monocytogenes ([5]; Day 20, 10 ppm): 2678 per bird
- average bacteria count per bird, L. monocytogenes ([5]; Day 20, 20 ppm): 2238 per bird
